According to ChEMBL document CHEMBL1201862, “PubChem BioAssay data set” (2004):
The source made the active and inactive calls.

How the values were obtained:
Trypsin = Trypsin (Sus scrofa, UniProt P00761); experiment: trypsin protease activity blockade – biochemical, quenched peptide fluorescence, cherry-pick, selectivity assay for Rce1 protease inhibitor project, dose response (AID 488789)
CAAX prenyl protease 2 = molecular target: T1, CAAX prenyl protease 2 (Saccharomyces cerevisiae S288c, UniProt Q03530); format: biochemical
T1 sequence (Q03530 whole entry): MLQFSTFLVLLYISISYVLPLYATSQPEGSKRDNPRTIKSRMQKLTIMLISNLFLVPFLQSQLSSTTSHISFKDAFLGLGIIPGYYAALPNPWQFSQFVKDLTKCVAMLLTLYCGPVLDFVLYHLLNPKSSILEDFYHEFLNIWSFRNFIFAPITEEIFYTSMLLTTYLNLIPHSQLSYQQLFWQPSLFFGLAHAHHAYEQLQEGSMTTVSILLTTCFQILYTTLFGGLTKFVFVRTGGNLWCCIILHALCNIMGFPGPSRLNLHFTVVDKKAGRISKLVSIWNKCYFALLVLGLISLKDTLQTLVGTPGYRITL

X-box-binding protein 1 = X-box-binding protein 1 (Homo sapiens, UniProt P17861); format: functional, Cricetulus griseus;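 note: confirmatory dose-response counter-screen serving a CHOP assay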
Chain of X-box-binding protein 1 (P17861 whole entry): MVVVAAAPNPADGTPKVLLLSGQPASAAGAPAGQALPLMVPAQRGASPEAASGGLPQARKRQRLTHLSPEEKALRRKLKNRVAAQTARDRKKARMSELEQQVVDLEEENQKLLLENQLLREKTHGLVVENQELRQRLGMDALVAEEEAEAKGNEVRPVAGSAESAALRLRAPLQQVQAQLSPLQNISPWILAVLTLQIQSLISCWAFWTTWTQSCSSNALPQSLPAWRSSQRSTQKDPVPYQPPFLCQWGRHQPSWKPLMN

Genome polyprotein = Genome polyprotein (dengue virus type 2, UniProt P29990); experiment: flavivirus cap methylation enzyme inhibition – biochemical, confirmation dose response, primary screen (AID 588689); format: functional
[1] = molecular target: G-protein coupled receptor 35 (Homo sapiens, UniProt Q9HC97); experiment: inhibition of zaprinast-stimulated GPR35 beta-arrestin translocation – imaging, U2OS, beta-arrestin-GFP, zaprinast agonist, primary screen (AID 2058); format: functional;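 note: antagonist potency meaning inhibition of agonist-induced arrestin redistribution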
Chain of G-protein coupled receptor 35 (Q9HC97 whole entry): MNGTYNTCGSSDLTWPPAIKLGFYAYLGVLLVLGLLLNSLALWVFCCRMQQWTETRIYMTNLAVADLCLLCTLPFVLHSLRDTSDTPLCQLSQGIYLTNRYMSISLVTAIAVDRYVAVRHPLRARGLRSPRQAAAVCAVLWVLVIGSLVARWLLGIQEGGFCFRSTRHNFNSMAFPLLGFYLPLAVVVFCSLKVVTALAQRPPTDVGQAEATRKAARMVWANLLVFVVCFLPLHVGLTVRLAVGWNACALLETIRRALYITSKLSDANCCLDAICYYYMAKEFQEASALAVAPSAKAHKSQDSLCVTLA

[2] = molecular target: T2, Tyrosine-protein phosphatase non-receptor type 7 (Homo sapiens, UniProt P35236); experiment: HePTP tyrosine phosphatase activity blockers – biochemical, absorbance, leukemia target, primary screen (AID 521); format: functional
T2 sequence (P35236 whole entry): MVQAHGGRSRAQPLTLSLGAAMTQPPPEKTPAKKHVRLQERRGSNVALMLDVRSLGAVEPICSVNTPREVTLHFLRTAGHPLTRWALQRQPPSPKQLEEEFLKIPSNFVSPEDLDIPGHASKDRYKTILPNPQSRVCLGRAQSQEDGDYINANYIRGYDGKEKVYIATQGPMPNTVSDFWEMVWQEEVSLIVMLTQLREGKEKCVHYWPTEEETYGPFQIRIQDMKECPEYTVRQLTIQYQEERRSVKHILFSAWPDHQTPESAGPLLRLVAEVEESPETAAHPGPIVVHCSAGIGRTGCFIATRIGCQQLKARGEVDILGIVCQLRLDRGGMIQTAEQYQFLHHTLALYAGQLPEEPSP

Bcl-2-like protein 10 = molecular target: T3, Bcl-2-like protein 10 (Homo sapiens, UniProt Q9HD36); experiment: Bcl-B/TR3 peptide binding disruption – biochemical, fluorescence polarization, FITC-TR3 peptide, selectivity assay for Bfl-1 inhibitor project, primary screen (AID 748);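 note: fluorescence polarization from a fluorescein-labelled TR3 peptide binding purified Bcl-B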
T3 sequence (Q9HD36 whole entry): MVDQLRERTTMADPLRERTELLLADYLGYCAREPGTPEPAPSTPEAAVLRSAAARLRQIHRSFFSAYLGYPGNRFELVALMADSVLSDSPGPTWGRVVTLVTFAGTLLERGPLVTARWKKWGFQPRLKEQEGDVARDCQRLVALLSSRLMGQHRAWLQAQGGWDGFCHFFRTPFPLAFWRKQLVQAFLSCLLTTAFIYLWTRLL

Bcl-2-like protein 1 = Bcl-2-like protein 1 (Homo sapiens, UniProt Q07817); experiment: blockers of BCLXL peptide binding – biochemical, fluorescence polarization, 1536-well, selectivity assay for MCL1 inhibitor project, dose response (AID 2218)
Chain of Bcl-2-like protein 1 (Q07817 whole entry): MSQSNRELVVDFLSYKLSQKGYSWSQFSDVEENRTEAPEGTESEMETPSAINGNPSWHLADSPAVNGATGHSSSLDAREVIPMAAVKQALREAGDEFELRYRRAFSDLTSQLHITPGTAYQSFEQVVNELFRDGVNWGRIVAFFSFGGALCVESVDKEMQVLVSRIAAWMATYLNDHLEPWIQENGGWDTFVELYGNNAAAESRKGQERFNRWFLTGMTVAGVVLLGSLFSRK

[3] = molecular target: Induced myeloid leukemia cell differentiation protein Mcl-1 (Homo sapiens, UniProt Q07820); experiment: blockers of MCL1 binding to BIM peptide – biochemical, fluorescence polarization, BIM-BH3 peptide, 1536-well, dose response (AID 2217)
Chain of Induced myeloid leukemia cell differentiation protein Mcl-1 (Q07820 whole entry): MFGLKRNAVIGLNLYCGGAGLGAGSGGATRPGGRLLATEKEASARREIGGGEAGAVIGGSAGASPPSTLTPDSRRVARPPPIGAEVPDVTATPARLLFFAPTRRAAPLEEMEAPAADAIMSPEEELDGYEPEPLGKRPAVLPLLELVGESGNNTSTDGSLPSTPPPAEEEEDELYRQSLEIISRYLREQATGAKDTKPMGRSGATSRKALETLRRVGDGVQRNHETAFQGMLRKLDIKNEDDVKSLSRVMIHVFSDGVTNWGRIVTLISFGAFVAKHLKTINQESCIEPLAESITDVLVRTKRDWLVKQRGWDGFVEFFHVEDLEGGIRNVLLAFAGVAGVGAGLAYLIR

[4] = molecular target: T4, Voltage-gated N-type calcium channel alpha-1B subunit/Amyloid beta A4 precursor protein-binding family A member 1 (Homo sapiens, UniProt Q00975+Q02410); format: protein assay
T4 sequence (Q00975 whole entry): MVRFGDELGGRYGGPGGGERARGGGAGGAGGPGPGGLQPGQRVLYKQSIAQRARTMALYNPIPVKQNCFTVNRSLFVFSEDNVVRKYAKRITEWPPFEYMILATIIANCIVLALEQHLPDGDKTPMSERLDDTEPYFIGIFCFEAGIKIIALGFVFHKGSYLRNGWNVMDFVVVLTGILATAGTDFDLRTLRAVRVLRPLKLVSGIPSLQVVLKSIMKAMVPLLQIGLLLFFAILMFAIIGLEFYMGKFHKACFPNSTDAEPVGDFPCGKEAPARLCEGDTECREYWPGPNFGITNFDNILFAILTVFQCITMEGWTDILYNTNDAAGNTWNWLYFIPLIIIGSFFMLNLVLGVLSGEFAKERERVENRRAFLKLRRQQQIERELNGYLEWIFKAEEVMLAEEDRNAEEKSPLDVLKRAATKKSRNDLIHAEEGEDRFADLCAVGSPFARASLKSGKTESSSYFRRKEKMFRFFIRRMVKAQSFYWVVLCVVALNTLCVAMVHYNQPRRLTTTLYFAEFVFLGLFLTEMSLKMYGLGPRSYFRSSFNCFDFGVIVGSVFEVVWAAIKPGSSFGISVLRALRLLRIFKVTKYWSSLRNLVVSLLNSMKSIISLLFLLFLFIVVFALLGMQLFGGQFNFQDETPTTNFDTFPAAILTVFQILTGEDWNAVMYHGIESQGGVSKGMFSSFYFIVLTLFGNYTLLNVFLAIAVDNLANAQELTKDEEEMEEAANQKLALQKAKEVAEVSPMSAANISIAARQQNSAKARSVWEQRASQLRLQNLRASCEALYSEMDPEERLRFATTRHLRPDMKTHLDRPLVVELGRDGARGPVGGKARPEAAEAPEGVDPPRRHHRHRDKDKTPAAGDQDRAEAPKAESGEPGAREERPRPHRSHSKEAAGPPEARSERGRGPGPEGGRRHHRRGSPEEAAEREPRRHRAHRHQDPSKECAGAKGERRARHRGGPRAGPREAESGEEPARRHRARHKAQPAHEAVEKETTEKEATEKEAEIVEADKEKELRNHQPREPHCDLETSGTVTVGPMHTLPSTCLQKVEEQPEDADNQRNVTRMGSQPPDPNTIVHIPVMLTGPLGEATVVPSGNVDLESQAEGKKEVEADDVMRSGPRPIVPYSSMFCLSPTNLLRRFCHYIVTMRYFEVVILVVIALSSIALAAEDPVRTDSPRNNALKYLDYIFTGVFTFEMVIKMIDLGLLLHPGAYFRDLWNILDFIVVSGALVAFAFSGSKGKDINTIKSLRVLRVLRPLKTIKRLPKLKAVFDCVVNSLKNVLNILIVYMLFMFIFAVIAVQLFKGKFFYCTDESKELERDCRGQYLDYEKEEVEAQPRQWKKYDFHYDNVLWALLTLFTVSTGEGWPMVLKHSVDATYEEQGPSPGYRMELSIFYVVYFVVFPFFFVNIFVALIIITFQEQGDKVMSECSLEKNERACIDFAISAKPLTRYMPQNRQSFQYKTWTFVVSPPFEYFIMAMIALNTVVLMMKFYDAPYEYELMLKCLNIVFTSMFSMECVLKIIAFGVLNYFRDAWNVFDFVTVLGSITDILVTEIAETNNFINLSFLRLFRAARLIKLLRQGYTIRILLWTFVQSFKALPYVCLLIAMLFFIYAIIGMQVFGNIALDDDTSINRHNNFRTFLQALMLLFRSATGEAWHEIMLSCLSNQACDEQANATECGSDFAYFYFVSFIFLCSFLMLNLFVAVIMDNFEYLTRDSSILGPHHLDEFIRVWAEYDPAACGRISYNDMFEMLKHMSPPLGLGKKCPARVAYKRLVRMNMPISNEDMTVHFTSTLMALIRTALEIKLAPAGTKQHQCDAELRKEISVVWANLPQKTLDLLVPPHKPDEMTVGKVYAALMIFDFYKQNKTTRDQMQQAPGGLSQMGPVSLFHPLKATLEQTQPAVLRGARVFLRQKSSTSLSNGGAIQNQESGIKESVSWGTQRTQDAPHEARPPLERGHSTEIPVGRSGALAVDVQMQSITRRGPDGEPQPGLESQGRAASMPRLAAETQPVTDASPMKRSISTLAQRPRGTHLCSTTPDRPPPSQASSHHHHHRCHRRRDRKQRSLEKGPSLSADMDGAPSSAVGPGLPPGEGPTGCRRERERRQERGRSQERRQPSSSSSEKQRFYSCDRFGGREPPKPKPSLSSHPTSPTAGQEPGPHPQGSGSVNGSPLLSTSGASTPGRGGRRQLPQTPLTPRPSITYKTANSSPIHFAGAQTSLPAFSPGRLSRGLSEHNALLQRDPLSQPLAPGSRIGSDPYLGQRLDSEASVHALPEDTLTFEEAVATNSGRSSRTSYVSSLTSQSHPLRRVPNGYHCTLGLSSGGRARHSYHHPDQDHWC
T4 sequence (Q02410 whole entry): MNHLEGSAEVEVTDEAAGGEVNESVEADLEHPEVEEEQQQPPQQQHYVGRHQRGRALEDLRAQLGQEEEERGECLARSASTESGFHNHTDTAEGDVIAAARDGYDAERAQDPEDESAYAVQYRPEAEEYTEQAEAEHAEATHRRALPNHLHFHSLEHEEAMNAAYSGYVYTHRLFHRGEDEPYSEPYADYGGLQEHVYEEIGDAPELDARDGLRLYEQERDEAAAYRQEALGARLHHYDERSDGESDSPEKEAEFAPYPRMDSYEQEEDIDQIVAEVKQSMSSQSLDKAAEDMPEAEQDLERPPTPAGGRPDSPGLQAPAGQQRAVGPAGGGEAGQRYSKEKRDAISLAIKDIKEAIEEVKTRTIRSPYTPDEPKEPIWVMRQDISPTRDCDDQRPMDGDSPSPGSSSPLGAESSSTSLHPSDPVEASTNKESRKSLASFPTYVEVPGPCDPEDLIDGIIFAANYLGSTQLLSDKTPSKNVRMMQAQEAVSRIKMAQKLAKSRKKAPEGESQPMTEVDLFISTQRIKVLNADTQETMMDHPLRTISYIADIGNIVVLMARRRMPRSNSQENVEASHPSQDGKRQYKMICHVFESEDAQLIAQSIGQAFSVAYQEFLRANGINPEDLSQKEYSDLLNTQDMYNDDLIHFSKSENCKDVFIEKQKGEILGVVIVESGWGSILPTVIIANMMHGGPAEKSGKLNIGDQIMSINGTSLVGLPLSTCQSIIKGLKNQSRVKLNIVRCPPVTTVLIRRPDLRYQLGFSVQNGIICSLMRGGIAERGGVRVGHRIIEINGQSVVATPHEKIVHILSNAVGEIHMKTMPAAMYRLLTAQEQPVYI

[5] = molecular target: T4, Voltage-gated N-type calcium channel alpha-1B subunit/Amyloid beta A4 precursor protein-binding family A member 1; experiment: disruptors of Mint-PDZ/N-type channel peptide interaction – biochemical, HTRF, set 2, SAR follow-up (AID 434980); format: functional
[6] = molecular target: T4, Voltage-gated N-type calcium channel alpha-1B subunit/Amyloid beta A4 precursor protein-binding family A member 1; experiment: disruptors of Mint-PDZ/N-type channel peptide interaction – biochemical, HTRF, SAR follow-up (AID 2489); format: functional
[7] = molecular target: T4, Voltage-gated N-type calcium channel alpha-1B subunit/Amyloid beta A4 precursor protein-binding family A member 1; format: protein assay; remark: listed apart in the source
[8] = molecular target: T5, Tyrosyl-DNA phosphodiesterase 2 (Homo sapiens, UniProt O95551); experiment: potency against TDP2 phosphodiesterase activity – biochemical, epi absorbance, IC50, dose response (AID 743297)
T5 sequence (O95551 whole entry): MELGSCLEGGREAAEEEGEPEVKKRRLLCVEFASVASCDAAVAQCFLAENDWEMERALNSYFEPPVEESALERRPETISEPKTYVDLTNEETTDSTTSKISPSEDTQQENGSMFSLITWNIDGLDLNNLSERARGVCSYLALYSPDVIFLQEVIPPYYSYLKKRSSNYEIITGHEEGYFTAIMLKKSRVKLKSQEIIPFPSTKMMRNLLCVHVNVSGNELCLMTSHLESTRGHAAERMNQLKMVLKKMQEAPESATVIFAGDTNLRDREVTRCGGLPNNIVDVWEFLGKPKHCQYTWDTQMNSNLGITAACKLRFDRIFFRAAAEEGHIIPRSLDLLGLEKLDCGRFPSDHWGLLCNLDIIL

[9] = molecular target: Glucose-6-phosphate 1-dehydrogenase (Homo sapiens, UniProt P11413); experiment: inhibition of Homo sapiens G6PD, dose series – biochemical, fluorescence, selectivity assay for P. falciparum G6PD inhibitor project, dose response (AID 504792); format: functional
[10] = molecular target: T6, Histone-lysine N-methyltransferase NSD2 (Homo sapiens, UniProt O96028); format: biochemical
T6 sequence (O96028 whole entry): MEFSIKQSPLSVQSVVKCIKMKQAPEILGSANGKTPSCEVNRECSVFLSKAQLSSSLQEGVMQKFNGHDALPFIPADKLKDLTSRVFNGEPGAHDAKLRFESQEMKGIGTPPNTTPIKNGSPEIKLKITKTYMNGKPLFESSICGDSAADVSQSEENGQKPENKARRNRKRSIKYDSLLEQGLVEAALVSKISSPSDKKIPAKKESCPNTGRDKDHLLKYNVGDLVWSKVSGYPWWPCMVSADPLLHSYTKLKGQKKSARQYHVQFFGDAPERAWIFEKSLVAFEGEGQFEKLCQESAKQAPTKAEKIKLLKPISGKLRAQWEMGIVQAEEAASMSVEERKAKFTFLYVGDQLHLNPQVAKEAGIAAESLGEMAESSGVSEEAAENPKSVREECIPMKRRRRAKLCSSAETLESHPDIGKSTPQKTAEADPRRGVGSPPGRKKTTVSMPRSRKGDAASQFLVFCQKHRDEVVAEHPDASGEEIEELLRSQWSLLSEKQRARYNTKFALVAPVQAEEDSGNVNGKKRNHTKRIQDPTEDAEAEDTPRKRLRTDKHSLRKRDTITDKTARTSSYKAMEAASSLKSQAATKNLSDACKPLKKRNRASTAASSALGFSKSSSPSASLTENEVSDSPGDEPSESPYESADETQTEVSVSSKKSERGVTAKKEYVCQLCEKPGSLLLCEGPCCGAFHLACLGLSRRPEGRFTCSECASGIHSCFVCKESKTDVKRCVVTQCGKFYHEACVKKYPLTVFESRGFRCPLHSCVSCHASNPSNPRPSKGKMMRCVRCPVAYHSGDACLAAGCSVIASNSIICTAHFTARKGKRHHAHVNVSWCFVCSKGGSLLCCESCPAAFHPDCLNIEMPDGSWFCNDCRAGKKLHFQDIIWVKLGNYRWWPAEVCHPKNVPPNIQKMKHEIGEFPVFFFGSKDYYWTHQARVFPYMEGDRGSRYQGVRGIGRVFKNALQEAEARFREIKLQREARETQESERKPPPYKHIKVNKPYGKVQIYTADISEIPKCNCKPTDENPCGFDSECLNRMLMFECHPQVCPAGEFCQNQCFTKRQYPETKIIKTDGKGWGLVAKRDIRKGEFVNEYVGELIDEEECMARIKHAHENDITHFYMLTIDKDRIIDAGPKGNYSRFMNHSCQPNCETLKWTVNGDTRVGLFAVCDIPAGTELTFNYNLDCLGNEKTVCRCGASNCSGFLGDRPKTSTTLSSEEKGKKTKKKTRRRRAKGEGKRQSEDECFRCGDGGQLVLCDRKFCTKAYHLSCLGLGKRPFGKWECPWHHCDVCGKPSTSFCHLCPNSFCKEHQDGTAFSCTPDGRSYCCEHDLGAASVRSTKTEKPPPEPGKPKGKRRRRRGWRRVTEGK

[11] = bead-based luminescence quenchers, dual-tagged ARNT – biochemical, AlphaScreen, cherry-pick, artefact control for ARNT-TACC3 interaction inhibitor project, dose response (AID 651705); format: functional;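 note: AlphaScreen bead proximity signal that flags compounds interfering with the detection technology; potency reflects signal decrease which marks the compound as an assay artifact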
Hexokinase HKDC1 = molecular target: T7, Hexokinase HKDC1 (Homo sapiens, UniProt Q2TB90); experiment: inhibition of HKDC1 glucose phosphorylation – biochemical, W721R variant, dose response (AID 504729); format: functional
T7 sequence (Q2TB90 whole entry): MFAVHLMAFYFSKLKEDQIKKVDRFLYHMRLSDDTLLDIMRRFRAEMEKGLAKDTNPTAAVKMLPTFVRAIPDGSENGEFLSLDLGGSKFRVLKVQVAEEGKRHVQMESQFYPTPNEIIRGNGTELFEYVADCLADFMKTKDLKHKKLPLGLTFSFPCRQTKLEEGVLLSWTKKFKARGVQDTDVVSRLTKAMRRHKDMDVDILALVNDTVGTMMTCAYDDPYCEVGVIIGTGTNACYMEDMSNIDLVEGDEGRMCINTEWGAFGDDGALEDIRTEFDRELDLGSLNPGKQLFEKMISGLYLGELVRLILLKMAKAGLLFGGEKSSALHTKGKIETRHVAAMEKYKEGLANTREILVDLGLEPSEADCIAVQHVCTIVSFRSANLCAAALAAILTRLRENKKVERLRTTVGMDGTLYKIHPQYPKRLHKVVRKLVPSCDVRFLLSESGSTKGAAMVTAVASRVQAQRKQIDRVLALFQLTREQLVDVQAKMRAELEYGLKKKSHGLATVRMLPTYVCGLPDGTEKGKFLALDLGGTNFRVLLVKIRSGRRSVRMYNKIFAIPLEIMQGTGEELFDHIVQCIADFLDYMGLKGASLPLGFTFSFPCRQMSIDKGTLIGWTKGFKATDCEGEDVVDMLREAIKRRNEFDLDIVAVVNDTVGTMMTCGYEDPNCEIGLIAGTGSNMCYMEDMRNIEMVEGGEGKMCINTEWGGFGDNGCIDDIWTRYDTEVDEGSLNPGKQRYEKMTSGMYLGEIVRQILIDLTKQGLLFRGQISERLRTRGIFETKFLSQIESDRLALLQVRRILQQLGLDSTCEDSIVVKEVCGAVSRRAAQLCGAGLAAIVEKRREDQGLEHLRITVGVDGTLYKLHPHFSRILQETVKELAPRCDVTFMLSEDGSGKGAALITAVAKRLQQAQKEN

[12] = molecular target: Cyclin-dependent kinase 5/CDK5 activator 1 (Homo sapiens, UniProt Q00535); experiment: blockade of human CDK5 activity – biochemical, cherry-picked samples, set 2, dose response (AID 504545)
Chain of Cyclin-dependent kinase 5/CDK5 activator 1 (Q00535 whole entry): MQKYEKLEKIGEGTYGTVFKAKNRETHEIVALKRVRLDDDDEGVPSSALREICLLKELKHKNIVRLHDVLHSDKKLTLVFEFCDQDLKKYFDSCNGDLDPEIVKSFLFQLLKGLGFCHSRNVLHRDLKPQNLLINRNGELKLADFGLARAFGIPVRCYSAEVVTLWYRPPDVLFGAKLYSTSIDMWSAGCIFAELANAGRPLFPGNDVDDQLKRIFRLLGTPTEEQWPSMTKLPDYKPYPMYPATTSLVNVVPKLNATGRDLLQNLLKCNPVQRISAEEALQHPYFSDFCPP
Chain of Cyclin-dependent kinase 5/CDK5 activator 1 (Q15078 whole entry, further chain): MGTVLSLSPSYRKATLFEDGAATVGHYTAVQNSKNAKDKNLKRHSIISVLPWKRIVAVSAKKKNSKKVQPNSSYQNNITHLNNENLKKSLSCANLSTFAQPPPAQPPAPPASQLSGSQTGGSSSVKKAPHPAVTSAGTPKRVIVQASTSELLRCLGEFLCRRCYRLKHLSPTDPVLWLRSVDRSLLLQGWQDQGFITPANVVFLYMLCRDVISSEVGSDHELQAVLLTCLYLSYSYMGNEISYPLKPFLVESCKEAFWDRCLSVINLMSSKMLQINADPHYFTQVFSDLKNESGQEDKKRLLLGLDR

## O=C(COc1ccc2ccc(=O)oc2c1)NCCc1c[nH]c2ccc(F)cc12
Trypsin
  AC50: 9.56 µM (active)
CAAX prenyl protease 2
  AC50: 9.47 µM (active)

## O=C(Nc1ccccc1C(F)(F)F)c1cc(-c2ccc(O)cc2)on1
X-box-binding protein 1
  Absolute IC50 (XBP1): 10 µM

## O=C(O)COc1ccc(/C=C/C(=O)c2ccc(C3CCCCC3)cc2)cc1
Genome polyprotein
  IC50: 47.7 µM (active)
[1]
  IC50: 2.16 µM (active)

## CCn1c(SC(C)C(=O)O)nc2sc3c(c2c1=O)CCC3 (centres undefined)
[2]
  IC50: 1.69 µM (active)
Bcl-2-like protein 10
  IC50: 7.65 µM (active)
Bcl-2-like protein 1
  IC50: 90.1 µM (not active)
[3]
  IC50: 16.8 µM (not active)

## CC(=O)Oc1ccc(N2C(=O)C3C(C2=O)C2(C)C=CC3(C)O2)cc1 (centres undefined)
[4]
  IC50: 5.05 µM (active)
[5]
  IC50: 6.39 µM (active)
[6]
  IC50: 7.82 µM (active)
[7]
  IC50: 1.93 µM (active)

## CC(N=C1C=C(O)c2cccnc2C1=O)C(O)c1ccccc1 (centres undefined)
[8]
  IC50: 5.45 µM (active)
[9]
  IC50: 33.2 µM (inactive)
[10]
  AC50: 0.754 µM (active)
[11]
  AC50: 111 µM (active)
Hexokinase HKDC1
  IC50: 18.5 µM (active)

## COc1ccc(C(=O)c2sc(Nc3ccccc3)nc2N)cc1
[12]
  AC50: 16.8 µM (active)
